From patent publication US10201610B2, “Interference peptides and use thereof” (The University of Western Australia, priority 2014, dated 2019) come the findings set out here.

Ends that are not written are not given here.

For orientation: IC50 means the concentration needed to halve the response being measured. A lower IC50 goes with greater potency in that assay.

Test [1] has as its system SUM149PT cells. Description: Hoechst staining of apoptotic nuclei in SUM149PT cells. It counts as cell-based, human. To be noted: 8 hours, compared with non-treated or iPep624ΔHEX-treated cells. The text has this: FIG. 3 Design of an EN1-specific interference peptide (EN1-iPep). (a) Molecular model of HOXA9 and PBX1 tertiary complex formation with the DNA (PDB: 1PUF). HOXA9 (hexapeptide “donor”) is shown in green; PBX (“partner”) in blue. The N-terminal peptide of HOXA9 (magenta) is essential to make contact with the DNA minor groove, as well as to stabilize the binding of HOXA9 with PBX1. The conserved tryptophan residue (W, arrow) is shown within the hexapeptide and it is responsible for anchoring the loop in PBX1. HD=Homeodomain. (b) A multiple alignment of the EN1-iPeps across species, with the consensus sequence of the iPep indicated below. […] Cells were treated for 8 hours and cell viability assessed by Cell Titer Glo assay (CTG). […] (e) Caspase 3 activity in SUM149PT cells measured after eight hours of iPep624 (SEQ ID NO: 5) or iPep624ΔHEX […]) treatment. […] Statistical significance was analyzed using the Student t-Test (*** p<0.001). […] Histogram represents the quantification of Hoechst positive cells per field of view at 40× magnification. […] Cell viability was assessed by Cell Titer Glo (CTG) assay and percentage of survival (%) was normalized to the control treated cells. […]
The EN1-iPeps and iPep controls were first tested in SUM149PT cells carrying high EN1 expression. […] Treated cells were first analyzed using the Cell Titer Glo assay, which monitors metabolic viability. […]

In another test the test system is HUMEC. Description: Cell Titer Glo cell viability assay, breast cancer cell line panel. It counts as cell-based. To be noted: 8 hours. How it is done:
(§1) To test the specificity of the EN1-iPep in cell lines expressing EN1, the inventors delivered the iPeps into a panel of breast cancer cell lines expressing different amounts of EN1.
(§2) All peptides were synthetized at the UNC High-Throughput Peptide Synthesis and Array Facility at UNC. Taxol, Rotenone and Halofuginone (Sigma-Aldrich, St Louis, Mo.) were dissolved in DMSO. A total of […] or 1×10^3 breast cells for peptide and drug treatment respectively, were seeded in 96-well plates. Cells were exposed for 8 hours to the peptide and 48 to 72 hours for drug treatment. The cell viability after peptide/drug treatment was assayed with the Cell Titer Glo (CTG) assay (Promega, Madison, Wis., USA).
In general terms: ATP-based viability assays read luminescence as a measure of living cells.

In the next test the test system is SUM159PT. The description is as above. It counts as cell-based. To be noted: 8 hours. On the procedure: as §1, §2
The next test concerns SUM102. The description is as above. To be noted: SUM102, 8 hours. It counts as cell-based. How it is done: as §1, §2
Test [2] deals with PBX family members (notably, PBX1). The test is described as follows: Immunoprecipitation and western blotting of TFHDs from SUM149PT extracts. To be noted: versus control peptide. It counts as binding, human. The text has this:
To investigate the binding partners of the iPeps in cancer cells, the inventors carried out affinity capture immunoprecipitation experiments using the biotinylated active iPep624 as bait, and the iPep624ΔHEX as negative control. They used total protein extracts from SUM149PT cells to capture endogenous proteins able to bind these peptides in vitro. Elutes were loaded in a 1D-SDS PAGE gel to visualize the enrichment of individual proteins. […] In addition, overexpression of EN1 cDNA into two different breast cell lines confirmed the interaction of the full length EN1 with the endogenous EPRS inside the cells (FIG. 6c). To ascertain whether some downstream well-known effectors of EPRS were also differentially regulated by the iPeps, we performed real time PCR to detect mRNA levels of COLA1, COLA2, S1004A and DDIT3 (CHOP). […] COLA1 and COLA2 encode collagen proteins highly enriched by the amino acid proline and S1004A is a protein involved in metastasis and fibrosis. […] In contrast, the amino acid stress factor DDIT3 is stimulated upon EPRS inhibition. […]
The iPep624 and iPep624ΔHEX were coupled to a C-terminal biotin and immobilized in streptavidin-coated beads. […] Detection was performed with ECL Detection System (GE Healthcare) and quantitated using Image J v1.46 (ImageJ, NCBI).
(In western blotting, separated proteins are transferred to a membrane and probed.)

The subject of test [3] is SUM149PT cells. Description: cells. It counts as cell-based, human.
Description: The EN1-iPeps and iPep controls were first tested in SUM149PT cells carrying high EN1 expression. Cells were first treated with a full-length 29-mer peptide (iPep624) comprising the N-terminal, less conserved amino acid sequences, the hexamotif, and the C-terminal tail. As a control, the inventors generated the iPep624ΔHEX in which the hexamotif was mutated from the wild type (wt) WPAWVY (SEQ ID NO: 13) to the GAAGAG (SEQ ID NO: 15) sequence. These mutations were expected to dramatically abolish the activity of the peptide. Both peptides were included in the culture medium of the basal cancer cells in increasing (0-100 μM) concentrations and incubated for 8 hours at 37° C. Treated cells were first analyzed using the Cell Titer Glo assay, which monitors metabolic viability. […] This calculated value of IC50 is in the range of concentrations observed with other peptides delivered with CPPs.
as §2

As for KKKRKVTDSQQPLVWPAWVYCTRYSDRPS [iPep624], the “number of apoptotic nuclei” value in the test with SUM149PT cells [1] is on record as “significantly higher”. Further, the cell viability entry is “no effect on cell viability” in the test on HUMEC; “decreased cell viability” in the test with SUM159PT; “decreased cell viability” with SUM102; “decreased cell viability” in the test on SUM149PT cells [3] (SUM149PT, 0-100 μM peptide, 8 hours). In addition, the “interaction with PBX family members (notably, PBX1)” value in test [2] is “specific interactions”. For the same sequence, in the test with SUM149PT cells [3] (8 h), the IC50 was found to be 17.5 µM. In addition, the sensitization to halofuginone result in the test with SUM149PT cells [3] (SUM149PT, co-treatment with 500 nM iPep) is “sensitized even more the basal-like breast cancer cells to halofuginone”. Further, the “breast cancer cell death” value in the test on SUM149PT cells [3] (SUM149PT, single agent) was “induced very potent breast cancer cell death”.
